# Entries after “also recorded” stand apart in the source; their conditions may differ.
# System: mouse iPS cells
# Test: Tumorigenesis suppression effects of statins versus phenamil (osteoblasts from iPS cell aggregates transplanted under mouse dorsal skin)
# Assay type: in vivo
# Method: Statins are also known as compounds that promote osteoblast differentiation induction, and have the effect of differentiating iPS cells into osteoblasts. Osteoblasts obtained by inducing differentiation in the presence of an osteoblast differentiation induction promoter (phenamil 1 μM) that was not a statin (HMG-CoA reductase inhibitor) were used as a control.
# Osteoblasts obtained by inducing differentiation for 30 days in the presence of a statin or phenamil were transplanted under mouse dorsal skin (both sides).
structure (smiles),measurement,setting,value
NC(=Nc1ccccc1)NC(=O)c1nc(Cl)c(N)nc1N [phenamil],tumor formation after transplantation (FIG. 7),"1 μM compound in osteoblast differentiation-inducing medium for 30 days, 28 days after transplantation under mouse dorsal skin",a tumor was formed; also recorded: no tumor formation suppression effect was observed
same,"tissue other than bone tissue (tumorigenesis/teratoma) around the grafts (H&E, FIG. 8)","1 μM compound, 30 days differentiation induction, grafts extracted after 28 days",formation of tissue other than bone tissue (teratoma) was observed
